Source: patent publication US8592379B2, “Metastin derivative and use thereof” (Kyoto University, priority 2008, dated 2013)
Like-named read-outs stand apart in the source and are kept apart here.

Tests used:
[1] = molecular target: T1, GPR54 (Homo sapiens (Human), UniProt Q969F8); assay: Flipr assay of GPR54 agonist activity (increase in intracellular Ca2+ ion concentration); assay type: cell-based; conditions: for % Activity / activity at 0.01 µM: signal upon addition of 10 nM compound, based on signal of 1 μM kisspeptin-10 as 100%
Method: The GPR54 agonist activity of the obtained compounds was evaluated by Flipr assay measuring increase in the intracellular Ca^2+ ion concentration caused by stimulation of receptor as a signal.

[2] = Half-life of the compound in the serum; conditions: for t1/2: in the serum; for half-life: serum, t1/2, in the serum
Method: (§2) In addition, the half-life (t1/2) of the compound in the serum was measured.

[3] = molecular target: MMP2 (Homo sapiens (Human), UniProt P08253); assay: Resistance to decomposition by matrix protease MMP2; assay type: in vitro ADME; conditions: for retention after treatment with MMP2: 48 hr, in words
From the text: (§1) Furthermore, the resistance of the present invention to the decomposition by matrix protease (MMP) was examined. […] However, only about 50% of compound 1 was retained.

[4] = molecular target: T1, GPR54; assay: Binding inhibitory test using membrane fraction of human GPR54-expressing cell and [125I]-Metastin 40-54
Method: A binding inhibitory test using membrane fraction of human GPR54-expressing cell and [^125I]-Metastin 40-54 was performed, and IC50 value was calculated (see non-patent document 2).

[5] = molecular target: MMP9 (Homo sapiens (Human), UniProt P14780); assay: Resistance to decomposition by matrix protease MMP9; assay type: in vitro ADME; conditions: for retention after treatment with MMP9: 72 hr, in words
From the text: as §1

[6] = serum
Method: as §2

T1 sequence (Q969F8 whole entry): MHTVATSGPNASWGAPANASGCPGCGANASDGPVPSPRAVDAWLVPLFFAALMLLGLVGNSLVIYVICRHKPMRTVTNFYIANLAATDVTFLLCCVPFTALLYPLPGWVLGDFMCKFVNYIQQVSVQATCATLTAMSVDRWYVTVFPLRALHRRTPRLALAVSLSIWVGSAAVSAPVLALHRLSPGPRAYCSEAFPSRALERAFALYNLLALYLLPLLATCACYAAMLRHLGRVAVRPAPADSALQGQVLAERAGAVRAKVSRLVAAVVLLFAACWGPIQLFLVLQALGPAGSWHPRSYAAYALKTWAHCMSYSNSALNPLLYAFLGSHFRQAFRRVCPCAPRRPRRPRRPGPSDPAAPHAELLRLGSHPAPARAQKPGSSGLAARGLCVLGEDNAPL

SMILES	% Activity [1]	t1/2 [2]	activity at 0.01 µM [1]	half-life [2]	further results
CC(C)C[C@H](NC(=O)CNC(=O)[C@H](Cc1ccccc1)NC(=O)[C@H](CO)NC(=O)[C@H](CC(N)=O)NC(=O)[C@H](Cc1c[nH]c2ccccc12)NC(=O)[C@H](CC(N)=O)NC(=O)[C@@H](N)Cc1ccc(O)cc1)C(=O)N[C@@H](CCCNC(=N)N)C(=O)N[C@@H](Cc1ccccc1)C(N)=O [Kisspeptin-10, reference compound]	–	–	–	–	QEC ([1]; EC50 of compound divided by EC50 of kisspeptin-10): 1; remaining at 48 h ([3]; isolated matrix protease MMP2, read-out: amount retained after treatment with MMP2): ~65%; QIC ([4]; IC50 of compound divided by IC50 of kisspeptin-10): 1; IC50 ([4]; [125I]-Metastin 40-54 as labeled ligand, membrane fraction): 70 to 120 pM
CC(C)C[C@H](CCCNC(=O)[C@H](Cc1ccccc1)NC(=O)c1ccc(F)cc1)C(=O)N[C@@H](CCCNC(=N)N)C(=O)N[C@@H](Cc1c[nH]c2ccccc12)C(N)=O [Compound 20]	–	–	70.3%	45 h	–
CC(C)C[C@H](NC(=O)CNC(=O)[C@H](Cc1ccccc1)NC(=O)c1ccc(F)cc1)C(=O)N[C@@H](CCCN=C(N)N)C(=O)N[C@@H](Cc1c[nH]c2ccccc12)C(N)=O [Compound 1, reference compound]	–	–	94.7%	–	remaining at 72 h ([5]; isolated matrix protease MMP9, read-out: amount retained after treatment with MMP9): ~50%; t1/2 [6]: 6.6 h
CC(C)C[C@H](/C=C/CNC(=O)[C@H](Cc1ccccc1)NC(=O)c1ccc(F)cc1)C(=O)N[C@@H](CCCN=C(N)N)C(=O)N[C@@H](Cc1c[nH]c2ccccc12)C(N)=O [Compound 19]	–	–	97.6%	38 h	retention after treatment with MMP9 [5]: retained even after 72 hr with scarce decomposition; retention after treatment with MMP2 [3]: retained even after 48 hr with scarce decomposition
CC(C)C/C(=C\CCNC(=O)[C@H](Cc1ccccc1)NC(=O)c1ccc(F)cc1)C(=O)N[C@@H](CCCNC(=N)N)C(=O)N[C@@H](Cc1c[nH]c2ccccc12)C(N)=O [Compound 21]	–	–	49.3%	52 h	–
CC(C)C/C(=C\[C@H](O)CNC(=O)[C@H](Cc1ccccc1)NC(=O)c1ccc(F)cc1)C(=O)N[C@@H](CCCN=C(N)N)C(=O)N[C@@H](Cc1c[nH]c2ccccc12)C(N)=O [Compound 23]	–	–	0.7%	1100 h	retention after treatment with MMP9 [5]: retained even after 72 hr with scarce decomposition
CC(C)C/C(=C\[C@@H](O)CNC(=O)[C@H](Cc1ccccc1)NC(=O)c1ccc(F)cc1)C(=O)N[C@@H](CCCNC(=N)N)C(=O)N[C@@H](Cc1c[nH]c2ccccc12)C(N)=O [Compound 22]	–	–	18.7%	60 h	–

Continued, in another order:

% Activity [1]	t1/2 [2]	activity at 0.01 µM [1]	half-life [2]	SMILES	further results
13.8%	120 h	–	–	CC(C)CC(C[C@H](O)CNC(=O)[C@H](Cc1ccccc1)NC(=O)c1ccc(F)cc1)C(=O)N[C@@H](CCCNC(=N)N)C(=O)N[C@@H](Cc1c[nH]c2ccccc12)C(N)=O (single isomer, unassigned) [Compound 25a]	–
53.9%	54 h	–	–	CC(C)CC(C[C@@H](O)CNC(=O)[C@H](Cc1ccccc1)NC(=O)c1ccc(F)cc1)C(=O)N[C@@H](CCCNC(=N)N)C(=O)N[C@@H](Cc1c[nH]c2ccccc12)C(N)=O (single isomer, unassigned) [Compound 24b]	–
0.6%	470 h	–	–	CC(C)CC(C[C@@H](O)CNC(=O)[C@H](Cc1ccccc1)NC(=O)c1ccc(F)cc1)C(=O)N[C@@H](CCCNC(=N)N)C(=O)N[C@@H](Cc1c[nH]c2ccccc12)C(N)=O (single isomer, unassigned) [Compound 24a]	–
95.6%	35 h	–	–	CC(C)CC(C[C@H](O)CNC(=O)[C@H](Cc1ccccc1)NC(=O)c1ccc(F)cc1)C(=O)N[C@@H](CCCNC(=N)N)C(=O)N[C@@H](Cc1c[nH]c2ccccc12)C(N)=O (single isomer, unassigned) [Compound 25b]	retention after treatment with MMP9 [5]: retained even after 72 hr with scarce decomposition; retention after treatment with MMP2 [3]: retained even after 48 hr with scarce decomposition
